# Test results: patent publication US9598362B2, “Benzidine derivative, method for preparing same, and pharmaceutical composition containing benzidine derivative for treating liver disease caused by hepatitis C virus” (priority 2013, dated 2017)
# Read-outs that look alike come from different tables or passages of the source.
# What was measured:
# HCV (JFH-5aFlucm4) = assay: Evaluation of anti-HCV activity 1: huh7.5.1 cells inoculated with HCV carrying renilla luciferase reporter; assay type: cell-based; conditions: Hepatitis C virus
# Method: To evaluate the anti-HCV activity of the compound represented by formula 1 of the present invention, the following experiment was performed.
# The hepatoma cell line huh7.5.1 was distributed in a 12-well cell culture plate at the density of 50,000 cells/well. The cells were cultured in DMEM (Dulbecco's Modified Eagle's Medium 12800-017, GIBCO Co.) supplemented with 10% (v/v) FBS (Fetal Bovine Serum SH30406.02, Hyclone Co.) and 1% (v/v) antibiotics (penicillin/streptomycin solution SV30010, Hyclone Co.) in a 37° C. 6.0% CO2 incubator (CO2 Incubator 311, Forma Scientific Co, Lnc. USA) for 24 hours to lead cell attachment on the plate. Then, the cells were inoculated with HCV (JFH-5aFlucm4, PLoS One. 2011; 6(8):e228808.) having renilla luciferase gene as a reporter for 3 hours. Upon completion of the virus inoculation, the cell culture medium was replaced with the medium containing the compounds prepared in Examples 1˜24 at the concentration of 1 μM each. The cells were cultured in a 37° C. 6.0% CO2 incubator (CO2 Incubator 311, Forma Scientific Co, Lnc. USA) for 3 days. Three days after the infection, the cell culture medium was collected to measure the cytotoxicity in the following Experimental Example 3. The cells attached on the plate were washed with PBS (phosphate buffered saline) and then lysed by treating 100 μl of 1× passive lysis buffer (Promega, E1941). The cell lysate (10 μl) was added to renilla luciferase assay reagent (50 μl) in renilla luciferase assay system (Promega, E2820), followed by measurement of luminescence for 10 seconds using the luciferase measure program with Luminometer (GLOMAX 20/20 Luminometer, Promega). At this time, the measurement of luminescence was performed in triplicate with the groups treated with the compounds of Examples 1˜24 and the non-treated control group. The mean value was calculated and compared. The luminescence of each compound over the concentration was converted into EC50 (half maximal effective concentration) by using sigma plot program, and the results are shown in Table 2.
# [1] = Evaluation of physiological activity: pharmacokinetics after oral or intravenous administration; assay type: in vivo; conditions: male mouse, 5 mg/kg; for AUC(0-inf): read-out: AUC0-∞, value up to infinite time from the administration; for half-life: read-out: T1/2 (time) (converted)
# Method: The following experiment was performed to evaluate physiological activity of the compound prepared in Example 16 by observing the pharmacokinetic changes.
# Particularly, the compound of Example 16 was orally or intravenously administered to male mouse, followed by observation of the pharmacokinetic changes. For the oral administration, the compound of Example 16 was dissolved to make the concentration 2.5 mg/ml. The prepared compound solution was orally administered at the dose of 5 mg/kg, followed by drawing blood from the jugular vein of the mouse at regular intervals. For the intravenous administration, tubes were inserted in the jugular vein and the femoral vein of male mouse. The compound solution was intravenously injected through the femoral vein at the dose of 5 mg/kg, followed by drawing blood from the mouse at regular intervals. The drawed blood was centrifuged to separate plasma. The plasma and urine samples were pretreated with a proper organic solvent, followed by investigation by LC-MS/MS. At this time, LC-MS/MS was performed by using mass spectrometry (Agilent 6460 QQQ, Agilent), LC lamp (Agilent 1260, Agilent), autosampler (Agilent 1260, Agilent), and data analysis system (Peak Sample Data System, Analyst 1.4.2, Applied Biosystems), and the conditions for LC-MS/MS were as follows; sample injection amount: 10 μl, flow rate: 0.3 ml/min, column: […] C18 column (50 mm×2.0 mm, 12 nm, YMC), elution buffer: acetonitrile: 10 mM ammoniumformate buffer=90:10 (v/v), and MS/MS condition: MPM mode: HCV (m/z 761.8170.1), IS (imipramine, m/z 281.286.2). The blood concentration over the administration period of the compound treated via oral or intravenous administration was analyzed, from which the noncompartmental pharmacokinetic parameter was calculated by using WinNonlin (Pharsight, USA).
# HCV replicon NK/R2AN = assay: Evaluation of anti-HCV activity 2: inhibition of HCV replication, huh7.5.1 cells with replicon NK/R2AN, renilla luciferase; assay type: cell-based; conditions: for EC50: Hepatitis C virus
# Method: To evaluate the anti-HCV activity, that is the activity to inhibit HCV replication, of the compound represented by formula 1 of the present invention, the following experiment was performed.
# The hepatoma cell line huh7.5.1 having NK/R2AN, the replicon with which the replication and translation of HCV could be measured, was distributed in a 12-well cell culture plate at the density of 50,000 cells/well. The cells were cultured in DMEM (Dulbecco's Modified Eagle's Medium 12800-017, GIBCO Co.) supplemented with 10% (v/v) FBS (Fetal Bovine Serum SH30406.02, Hyclone Co.), 1% (v/v) antibiotics (penicillin/streptomycin solution SV30010, Hyclone Co.), and G418 (600 μg/mL, Calbiochem) in a 37° C. 6.0% CO2 incubator (CO2 Incubator 311, Forma Scientific Co, Lnc. USA) for 24 hours to lead cell attachment on the plate. Then, the cells were inoculated with HCV having renilla luciferase gene as a reporter for 3 hours. Upon completion of the virus inoculation, the cell culture medium was replaced with the medium containing the compounds prepared in Examples 1˜24 were added to the culture medium at the concentrations of 40 pM˜1 μM each. The cells were cultured in a 37° C. 6.0% CO2 incubator (CO2 Incubator 311, Forma Scientific Co, Lnc. USA) for 3 days. Three days after the infection, the cell culture medium was collected to measure the cytotoxicity in the following Experimental Example 3. The cells attached on the plate were washed with PBS (phosphate buffered saline) and then lysed by treating 100 μl of 1× passive lysis buffer (Promega, E1941). The cell lysate (10 μl) was added to renilla luciferase assay reagent (50 μl) in renilla luciferase assay system (Promega, E2820), followed by measurement of luminescence for 10 seconds using the luciferase measure program with Luminometer (GLOMAX 20/20 Luminometer, Promega). At this time, the measurement of luminescence was performed in triplicate with the groups treated with the compounds of Examples 1˜24 and the non-treated control group. The mean value was calculated and compared. The luminescence of each compound over the concentration was converted into EC50 (half maximal effective concentration) by using sigma plot program, and the results are shown in Table 3. At this time, when EC50 was under 100 pM, it was marked as A; when EC50 was in the range of 100 pM 1 nM, it was marked as B; when EC50 was in the range of 1 nM˜100 nM, it was marked as C; and when EC50 was over 100 nM, it was marked as D. The results are shown in Table 3.
# [2] = Huh-7.5.1, 72 h, read-out: EC50 grade
structure (smiles),measurement,setting,value
"COC(=O)N[C@@H](C(=O)N1CCC[C@H]1C(=O)Nc1ccc(-c2ccc(NC(=O)[C@@H]3CCCN3C(=O)[C@H](NC(=O)OC)c3ccccc3)cc2)cc1)c1ccccc1 [Example 16, dimethyl(1S,1′S)-2,2′-((2S,2′S)-2,2′-(biphenyl-4,4′-diylbis(azandiyl))bis(oxomethylene)bis(pyrrolidine-2,1-diyl))bis(2-oxo-1-phenylethane-2,1-diyl)dicarbamate]",EC50,HCV (JFH-5aFlucm4); Huh-7.5.1,< 1 nM
same,EC50,HCV (JFH-5aFlucm4); [2],< 1 nM
same,AUC0-t,[1]; intravenous injection,9.16 ± 1.03 µg·h/mL
same,AUC0-∞,[1]; intravenous injection,9.37 ± 1.06 µg·h/mL
same,AUC0-t,[1]; oral administration,1.83 ± 0.565 µg·h/mL
same,AUC0-∞,[1]; oral administration,2.5 ± 0.498 µg·h/mL
same,Tmax (time),[1]; oral administration,2 ± 1.73 time
same,Cmax,"[1]; oral administration, plasma",0.188 µg/mL
same,AUC0-t,"[1]; plasma, iv, intravenously injected, read-out: AUC0-24, value up to 24 hours from the administration",9.16 µg·h/mL
same,AUC(0-inf),"[1]; plasma, iv, intravenously injected",9.37 µg·h/mL
same,bioavailability,"[1]; plasma, po relative to iv, printed in the Intravenous Injection column, read-out: Ft, bioavailability",20%
same,AUC0-t,"[1]; plasma, po, orally administered, read-out: AUC0-24, value up to 24 hours from the administration",1.83 µg·h/mL
same,AUC(0-inf),"[1]; plasma, po, orally administered",2.5 µg·h/mL
same,clearance,"[1]; plasma, intravenous injection",0.538 L/h/kg
same,half-life,"[1]; plasma, intravenous injection",4.09 ± 3.06 h
same,Vd,"[1]; plasma, intravenous injection, read-out: Vss",1.31 ± 0.144 L/kg
same,half-life,"[1]; plasma, oral administration",15 ± 9.5 h
same,Tmax,"[1]; plasma, oral administration, read-out: time to reach the maximum concentration (Tmax)",2 h
same,EC50,HCV replicon NK/R2AN; Huh-7.5.1,< 0.1 nM
same,EC50,HCV replicon NK/R2AN; [2],< 0.1 nM
same,EC50 (in words),HCV replicon NK/R2AN; duplicated HCV treated with compound,significantly low
